{"source": "patent US20050107441A1", "about": "“Compositions and methods for altering glucose production” (priority 2001, published 2005)", "key": {"PEPCK": {"tested_on": "PEPCK", "assay": "Insulin treatment of ZDF rats, real-time quantitative PCR of liver RNA: PEPCK mRNA", "type": "in vivo, Zucker diabetic fatty (ZDF) rats", "conditions": "pooled RNA samples, 6 hours after subcutaneous insulin vs vehicle (0.9% normal saline)", "method": "(§1) In these experiments, ZDF rats were treated for 6 hours with insulin or vehicle (0.9% normal saline) alone. At the end of this period, the rats were killed and RNA prepared from their livers. […] Conversely, PEPCK levels decreased by approximately 2 fold in response to insulin.\n(§2) All procedures performed were in compliance with the Animal Welfare Act, USDA regulations and approved by the GlaxoSmithKline Institutional Animal Care and Use Committee. Animals were housed at 72 F and 50% relative humidity with a 12 hour light and dark cycle, and fed chow diet (Formulab Diet 5008, PMI Feeds Inc., Richmond, Ind.). Insulin-treated animals received a mixture of HUMULIN®N and HUMULIN®R (Lilly, Indianapolis, Ind.) by subcutaneous injection and were sacrificed six hours later. RTQ-PCR was performed using an ABI PRISM 7700 Sequence Detection System instrument and software (PE Applied Biosystems, Inc., Foster City, Calif.) in accordance with procedures described by Way et al. (Endocrinology 2001 142: 1269-77). Primers used include:Rat PEPCK forward: TGAGGAAGTTTGTGGAAG (SEQ ID NO:1) • Rat PEPCK reverse: GCCGTCGCAGATGTGAAT (SEQ ID NO:2) • Rat PEPCK probe: TGCCCAGCTGTGCCAGCC (SEQ ID NO:3) • Rat SHP forward: TGGTACCCAGCTAGCCAAG (SEQ ID NO:4) • Rat SHP reverse: TGTTCTTGAGGGTGGAAGC (SEQ ID NO: 5) • Rat SHP probe: CGCCTGGCCCGAATCCTCC (SEQ ID NO:6) [drawing]"}, "SHP mRNA": {"tested_on": "SHP mRNA", "assay": "Insulin treatment of ZDF rats, real-time quantitative PCR of liver RNA: SHP mRNA", "type": "in vivo, Zucker diabetic fatty (ZDF) rats", "conditions": "pooled RNA samples, 6 hours after subcutaneous insulin vs vehicle (0.9% normal saline)", "method": "as §1, §2"}}, "data": [{"substance": "insulin", "values": [{"measurement": "PEPCK levels decreased in response to insulin", "setting": "PEPCK", "value": "approximately 2 fold"}, {"measurement": "SHP mRNA levels increased in response to insulin", "setting": "SHP mRNA", "value": "approximately 17 fold"}]}]}
